Measured values from ChEMBL document CHEMBL2150874, “Novel and selective inhibitors of histone deacetylase: patent highlight” (ACS Med Chem Lett, 2012).

Legend:
[1] = molecular target: T1, Protein deacetylase HDAC6 (Homo sapiens, UniProt Q9UBN7); test: Inhibition of HDAC6
T1 sequence (Q9UBN7 whole entry): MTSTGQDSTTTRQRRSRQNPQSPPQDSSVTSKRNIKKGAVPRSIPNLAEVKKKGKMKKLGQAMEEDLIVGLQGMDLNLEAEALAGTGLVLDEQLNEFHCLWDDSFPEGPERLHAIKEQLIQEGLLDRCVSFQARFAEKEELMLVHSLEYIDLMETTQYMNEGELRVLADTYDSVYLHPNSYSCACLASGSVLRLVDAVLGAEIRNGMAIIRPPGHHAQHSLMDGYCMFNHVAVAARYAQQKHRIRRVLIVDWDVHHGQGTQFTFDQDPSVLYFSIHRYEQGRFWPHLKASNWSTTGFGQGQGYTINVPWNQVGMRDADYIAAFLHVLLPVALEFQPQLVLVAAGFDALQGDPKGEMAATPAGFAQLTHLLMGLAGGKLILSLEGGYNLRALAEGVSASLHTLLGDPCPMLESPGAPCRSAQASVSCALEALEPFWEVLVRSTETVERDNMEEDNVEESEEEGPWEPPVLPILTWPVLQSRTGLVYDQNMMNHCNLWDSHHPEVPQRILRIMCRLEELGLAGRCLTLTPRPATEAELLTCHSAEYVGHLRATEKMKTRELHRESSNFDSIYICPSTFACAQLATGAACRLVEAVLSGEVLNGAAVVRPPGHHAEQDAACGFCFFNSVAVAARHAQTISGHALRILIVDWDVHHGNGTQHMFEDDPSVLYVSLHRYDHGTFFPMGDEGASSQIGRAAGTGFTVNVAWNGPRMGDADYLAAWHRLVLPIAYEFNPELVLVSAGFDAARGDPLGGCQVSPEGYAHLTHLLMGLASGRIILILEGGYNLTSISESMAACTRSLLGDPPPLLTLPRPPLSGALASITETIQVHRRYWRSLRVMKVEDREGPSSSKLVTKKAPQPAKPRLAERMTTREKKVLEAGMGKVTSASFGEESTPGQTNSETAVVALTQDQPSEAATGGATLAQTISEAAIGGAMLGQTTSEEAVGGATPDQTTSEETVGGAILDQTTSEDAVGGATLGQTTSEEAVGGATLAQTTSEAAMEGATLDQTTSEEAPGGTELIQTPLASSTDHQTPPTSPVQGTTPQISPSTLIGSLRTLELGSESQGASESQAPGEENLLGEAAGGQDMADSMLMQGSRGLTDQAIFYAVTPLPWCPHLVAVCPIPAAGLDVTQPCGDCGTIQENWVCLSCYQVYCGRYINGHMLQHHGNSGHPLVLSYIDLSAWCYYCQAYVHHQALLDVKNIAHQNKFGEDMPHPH

[2] = system: PC-12; test: Neuroprotective activity in rat PC12 cells at 1 uM by lactate dehydrogenase assay; format: functional

Row | SMILES | IC50 [1] [nM] | Activity [2] [%]
1 | O=C(NO)c1ccc2c(c1)CN(C(=O)/C(=C/c1cccs1)c1ccc(F)cc1)CC2 | < 1 | 71.8
2 | Cc1ccc(/C(=C\c2ccccc2)C(=O)N2CCc3ccc(C(=O)NO)cc3C2)cc1 | < 1 | 68.7
3 | COc1ccc(/C=C(/C(=O)N2CCc3ccc(C(=O)NO)cc3C2)c2ccccc2F)cc1OC | < 1 | 100
4 | O=C(NO)c1ccc2c(c1)CN(C(=O)/C(=C/c1ccc(F)cc1F)c1ccc(F)cc1)CC2 | < 1 | 56
5 | O=C(NO)c1ccc2c(c1)CN(C(=O)/C(=C/c1ccccc1)c1cccc(Cl)c1)CC2 | < 1 | 77.8
6 | O=C(NO)c1ccc2c(c1)CN(C(=O)/C(=C/c1ccccc1)c1ccccc1)CC2 | < 1 | 36.6

Second part, led by results:

Row | IC50 [1] [nM] | SMILES | Activity [2] [%]
7 | < 1 | COc1ccc(/C=C(/C(=O)N2CCc3ccc(C(=O)NO)cc3C2)c2ccccc2)cc1 | 55
8 | < 1 | COc1cc(/C=C(/C(=O)N2CCc3ccc(C(=O)NO)cc3C2)c2ccc(F)cc2)ccc1F | 67.2
9 | < 1 | COc1ccc(/C=C(/C(=O)N2CCc3ccc(C(=O)NO)cc3C2)c2ccc(F)cc2)c(OC)c1 | 38
10 | < 1 | Cc1ccc(/C(=C\c2ccc(F)cc2)C(=O)N2CCc3ccc(C(=O)NO)cc3C2)cc1 | 100
